Laboratory results taken from ChEMBL document CHEMBL3351696, “Design of chemically stable, potent, and efficacious MDM2 inhibitors that exploit the retro-mannich ring-opening-cyclization reaction mechanism in spiro-oxindoles” (J Med Chem, 2014).
Calls of active or inactive are those of the source. The calls are words filed in the database; no cut-off is given here.

Columns and labels:
SJSA-1 [1] = test: cells; settings: Homo sapiens
physchem [2] = settings: 1:1 CH3CN/H2O
physchem [3] = settings: 1:1 CH3CN/H2O; remark: listed apart in the source
physchem [4] = settings: 1:1 CH3CN/H2O; remark: listed apart in the source
physchem [5] = settings: 1:1 CH3CN/H2O; remark: listed apart in the source
SJSA-1 [6] = settings: Homo sapiens, 200 mg/kg
cells [7] = settings: Homo sapiens, HCT-116
cells [8] = settings: Homo sapiens, HCT-116; remark: listed apart in the source
physchem [9] = settings: 1:1 CH3CN/H2O solution
physchem [10] = settings: 1:1 MeOH/H2O solution

O=C(NCCN1CCOCC1)[C@@H]1NC2(CCCCC2)[C@@]2(C(=O)Nc3cc(Cl)ccc32)[C@H]1c1cccc(Cl)c1F
IC50 (SJSA-1 [1]): 0.3 µM | remaining at 0 h (physchem [2]): 100% | remaining at 24 h (physchem [3]): 100% | remaining at 72 h (physchem [4]): 99.6% | remaining at 144 h (physchem [5]): 99.2%

CCC1(CC)N[C@@H](C(=O)N[C@H]2C[C@@](C)(O)C2)[C@H](c2cccc(Cl)c2F)[C@]12C(=O)Nc1cc(Cl)ccc12
IC50 (SJSA-1 [1]): > 10 µM

O=C(N[C@H]1CC[C@H](O)CC1)[C@@H]1NC2(CCCCC2)[C@@]2(C(=O)Nc3cc(Cl)ccc32)[C@H]1c1cccc(Cl)c1F
TGI (SJSA-1 [6]): Active | IC50 (SJSA-1 [1]): 0.19 µM | IC50 (cells [7]): 0.32 µM | IC50 (cells [8]): > 10 µM

O=C(NCCN1CCOCC1)[C@@H]1NC2(CCC2)[C@]2(C(=O)Nc3cc(Cl)ccc32)[C@H]1c1cccc(Cl)c1F
IC50 (SJSA-1 [1]): 1.65 µM

O=C(N[C@H]1CC[C@H](O)CC1)[C@@H]1NC2(CCC2)[C@@]2(C(=O)Nc3cc(Cl)ccc32)[C@H]1c1cccc(Cl)c1F
IC50 (SJSA-1 [1]): 1.6 µM

CC(C)(C)C[C@@H]1N[C@@H](C(=O)NCCN2CCOCC2)[C@H](c2cccc(Cl)c2F)[C@]12C(=O)Nc1cc(Cl)ccc12
remaining at 0 h (physchem [2]): 98.1% | remaining at 24 h (physchem [3]): 90.8% | remaining at 72 h (physchem [4]): 86.9% | remaining at 144 h (physchem [5]): 82.7%

O=C(NCCN1CCOCC1)[C@@H]1NC2(CCC2)[C@@]2(C(=O)Nc3cc(Cl)ccc32)[C@H]1c1cccc(Cl)c1F
IC50 (SJSA-1 [1]): 2.3 µM

O=C(N[C@H]1CC[C@H](O)CC1)[C@@H]1NC2(CCCC2)[C@@]2(C(=O)Nc3cc(Cl)ccc32)[C@H]1c1cccc(Cl)c1F
IC50 (SJSA-1 [1]): 0.65 µM

O=C(NCC[C@H](O)CO)[C@@H]1NC2(CCCCC2)[C@@]2(C(=O)Nc3cc(Cl)ccc32)[C@H]1c1cccc(Cl)c1F
IC50 (SJSA-1 [1]): 0.2 µM | remaining at 0 h (physchem [2]): 100% | remaining at 24 h (physchem [3]): 100% | remaining at 72 h (physchem [4]): 100% | remaining at 144 h (physchem [5]): 100%

CC(C)(C)C[C@@H]1N[C@@H](C(=O)N[C@H]2C[C@@](C)(O)C2)[C@H](c2cccc(Cl)c2F)[C@]12C(=O)Nc1cc(Cl)ccc12
remaining at 0 h (physchem [2]): 100% | remaining at 24 h (physchem [3]): 99.6% | remaining at 72 h (physchem [4]): 98.6% | remaining at 144 h (physchem [5]): 97.7% | degraded at 168 h (physchem [9]): 2% | degraded at 168 h (physchem [10]): 2%

O=C(NCC[C@H](O)CO)[C@@H]1NC2(CCC2)[C@]2(C(=O)Nc3cc(Cl)ccc32)[C@H]1c1cccc(Cl)c1F
IC50 (SJSA-1 [1]): 1.67 µM

O=C(NCC[C@H](O)CO)[C@@H]1NC2(CCC2)[C@@]2(C(=O)Nc3cc(Cl)ccc32)[C@H]1c1cccc(Cl)c1F
IC50 (SJSA-1 [1]): 2.08 µM

CCC1(CC)N[C@@H](C(=O)NCCN2CCOCC2)[C@H](c2cccc(Cl)c2F)[C@]12C(=O)Nc1cc(Cl)ccc12
IC50 (SJSA-1 [1]): > 10 µM

CC(C)(C)C[C@@H]1N[C@@H](C(=O)NCC[C@H](O)CO)[C@H](c2cccc(Cl)c2F)[C@]12C(=O)Nc1cc(Cl)ccc12
remaining at 0 h (physchem [2]): 97.5% | remaining at 24 h (physchem [3]): 95.8% | remaining at 72 h (physchem [4]): 95.7% | remaining at 144 h (physchem [5]): 91.4%

C[C@]1(O)C[C@@H](NC(=O)[C@@H]2NC3(CCCCC3)[C@@]3(C(=O)Nc4cc(Cl)ccc43)[C@H]2c2cccc(Cl)c2F)C1
IC50 (SJSA-1 [1]): 0.16 µM | remaining at 0 h (physchem [2]): 100% | remaining at 24 h (physchem [3]): 100% | remaining at 72 h (physchem [4]): 100% | remaining at 144 h (physchem [5]): 100%

C[C@]1(O)C[C@@H](NC(=O)[C@@H]2NC3(CCC3)[C@]3(C(=O)Nc4cc(Cl)ccc43)[C@H]2c2cccc(Cl)c2F)C1
IC50 (SJSA-1 [1]): 1.46 µM

CCC1(CC)N[C@@H](C(=O)N[C@H]2CC[C@H](O)CC2)[C@H](c2cccc(Cl)c2F)[C@]12C(=O)Nc1cc(Cl)ccc12
IC50 (SJSA-1 [1]): 5.4 µM

CC1(C)N[C@@H](C(=O)N[C@H]2CC[C@H](O)CC2)[C@H](c2cccc(Cl)c2F)[C@]12C(=O)Nc1cc(Cl)ccc12
IC50 (SJSA-1 [1]): 2.9 µM

O=C(N[C@H]1CC[C@H](O)CC1)[C@@H]1NC2(CCC2)[C@]2(C(=O)Nc3cc(Cl)ccc32)[C@H]1c1cccc(Cl)c1F
IC50 (SJSA-1 [1]): 2 µM

CCCC1(CCC)N[C@@H](C(=O)N[C@H]2CC[C@H](O)CC2)[C@H](c2cccc(Cl)c2F)[C@]12C(=O)Nc1cc(Cl)ccc12
IC50 (SJSA-1 [1]): 6.9 µM

O=C(O)c1ccc(NC(=O)[C@@H]2NC3(CCCCC3)[C@@]3(C(=O)Nc4cc(Cl)ccc43)[C@H]2c2cccc(Cl)c2F)cc1
IC50 (SJSA-1 [1]): 0.1 µM | IC50 (cells [7]): 0.25 µM | IC50 (cells [8]): > 10 µM

C[C@]1(O)C[C@@H](NC(=O)[C@@H]2NC3(CCC3)[C@@]3(C(=O)Nc4cc(Cl)ccc43)[C@H]2c2cccc(Cl)c2F)C1
IC50 (SJSA-1 [1]): 1.68 µM

CCC1(CC)N[C@@H](C(=O)NCC[C@H](O)CO)[C@H](c2cccc(Cl)c2F)[C@]12C(=O)Nc1cc(Cl)ccc12
IC50 (SJSA-1 [1]): > 10 µM

O=C(N[C@H]1CC[C@H](O)CC1)[C@@H]1NC2(CCCCCC2)[C@@]2(C(=O)Nc3cc(Cl)ccc32)[C@H]1c1cccc(Cl)c1F
IC50 (SJSA-1 [1]): 2.1 µM
